Source: paper PMC10425210 (The Journal of Clinical Investigation, 2023)
Values joined by “and” are separate entries in the source; they are usually repeats but may differ in a detail not shown here. Equal values may be shown once.

Tests used:
[1] = system: SHIV-SF162P3; assay: Antiviral assay in rhesus PBMCs acutely infected with SHIV.SF162P3; assay type: cell-based, rhesus macaque; settings: for SHIV Replication (Mean): representative assay, N 3
Description: Freshly isolated PBMCs from 3 male Indian rhesus macaque (Macaca mulatta) donors were obtained from Human Cells Biosciences. Rhesus PBMCs were cultured in RPMI-1640 cell culture media (Life Technologies) supplemented with 10% heat-inactivated FBS (Hyclone), 2 mM glutamine, and 100 units/mL penicillin plus 100 μg/mL streptomycin (complete RPMI). Prior to their use in antiviral assays, PBMCs from 3 independent donors were pooled and activated at a density of 3 × 10^6 cells per mL for 72 hours at 37°C by addition of 1 μg/mL PHA (Sigma-Aldrich) and 50 units/mL recombinant human IL-2 (Roche Diagnostics).
Briefly, PHA/IL-2–stimulated rhesus PBMCs were infected in bulk culture with SHIV.SF162P3 at a concentration of 130 pg p27 equivalent per million PBMCs. Cells were maintained in suspension by gently rocking the cultures mixed with virus inoculum for 3 hours at 37°C. Cells were then pelleted by centrifugation at 500g for 5 minutes, washed twice with complete RPMI to remove any unadsorbed virus, and seeded into 96-well plates at a cell density of 2 × 10^5 cells per well in 100 μL. […] Cultures were incubated in a 5% CO2 incubator at 37°C for 7 days. The cell-free supernatants derived from the PBMC cultures were harvested 7 days after infection, and the amount of SHIV present was quantified using a SIV p27 antigen capture ELISA assay (item 5436, Advanced Bioscience Laboratories Inc.) performed according to the manufacturer’s protocol.

[2] = system: HIV-1; assay: Antiviral assay in human PBMCs infected with HIV-1 clinical isolates; assay type: cell-based; settings: HIV-1, human PBMCs; EC95 x human plasma shift
[3] = system: HIV-1; assay: Antiviral assay against HIV-1 in MT-4 cells; assay type: cell-based; settings: HIV-1IIIb in MT-4 cells
[4] = Safety and tolerability of subcutaneous LEN dosing; assay type: in vivo, rhesus macaques
Text: Injections at all dose levels were generally well tolerated without notable clinical observations. […] Grade 1 edema and/or erythema was observed across multiple time points and animals from all 5 dose groups and was fully resolved by week 11 after dose.
All animals were housed at Bioqual Inc. For the in vivo SHIV stock titration study, 8 untreated outbred Indian-origin male rhesus macaques aged 3–5 years were challenged intrarectally per round for a total of 5 challenge rounds using increasing virus doses ranging from 0.625 to 100 TCID50, with the 100 TCID50 round performed twice for increased resolution (Supplemental Table 2). Plasma viral load was measured to confirm the infection status. […] Injection sites were monitored daily by veterinary staff for 2 weeks and then weekly through the end of study. On week 7, 11 animals were challenged by the intrarectal route with 1 mL RPMI containing 100 TCID50 SHIV-SF162P3. Whole blood was collected and processed into plasma and PBMCs as necessary for the assessment of routine hematology and clinical chemistry, viral load analysis, serology, and the bioanalysis of drug levels. Animals were considered protected if they remained SHIV negative by a plasma PCR assay and seronegative by enzyme immunoassay through week 10 after challenge.

[5] = through week 52 of treatment across clinical studies; cited from earlier work

With `CC(C)(C#Cc1ccc(-c2ccc(Cl)c3c(NS(C)(=O)=O)nn(CC(F)(F)F)c23)c([C@H](Cc2cc(F)cc(F)c2)NC(=O)Cn2nc(C(F)(F)F)c3c2C(F)(F)[C@@H]2C[C@H]32)n1)S(C)(=O)=O` [LEN, Lenacapavir] the “SHIV Replication (Mean)” value ([1]; LEN 0.011 nM) was 98, the “SHIV Replication (Mean)” value ([1]; LEN 0.034 nM) was 91 and the “SHIV Replication (Mean)” value ([1]; LEN 0.103 nM) was 99. The “SHIV Replication (Mean)” value ([1]; LEN 0.309 nM) was 60, the “SHIV Replication (Mean)” value ([1]; LEN 0.926 nM) was 18 and the “SHIV Replication (Mean)” value ([1]; LEN 2.778 nM) was 1. The “SHIV Replication (Mean)” value ([1]; LEN 8.333 nM) was 0, the “SHIV Replication (Mean)” value ([1]; LEN 25 nM) was 0 and the EC50 ([1]; Macaca mulatta, PBMC, 168 h) was 0.39 ± 0.16 nM. The “paEC95 (protein-adjusted EC95)” value ([1]; SHIV, rhesus PBMCs, EC95 x rhesus plasma shift) was 8.80 nM and 8.8 nM and 8.80 ± 3.69^E nM, the EC95 ([1]; SHIV-SF162P3, rhesus PBMCs, EC95 = EC50 x (95/5)^1/n) was 0.91 nM and 0.91 ± 0.38 nM and the “paEC95 (protein-adjusted EC95)” value [2] was 2.01 nM and 2.01 ± 1.22 nM. For the same compound, the “Hill coefficient (n)” value [3] was 3.51 ± 0.31, the “safety and tolerability of subcutaneous injection” value ([4]; all dose levels tested, 5-75 mg/kg) was “safe and well tolerated” and the “time by which Grade 1 edema and/or erythema was fully resolved” value ([4]; male, outbred Indian-origin, rhesus monkey, in vivo) was no more than 11 week after dose. For the same compound, the Hematology analyses ([4]; rhesus monkey, in vivo) was “no abnormal values” and the “serious adverse events or laboratory abnormalities” value [5] was “no serious adverse events or laboratory abnormalities related to LEN”.
